Assay results as given in ChEMBL document CHEMBL4304811, “Development of a Water-Soluble Indolylmaleimide Derivative IM-93 Showing Dual Inhibition of Ferroptosis and NETosis” (ACS Med Chem Lett, 2019).

Key:
[1] = target: Serine/threonine-protein kinase 36 (Homo sapiens) (UniProt Q9NRP7); assay: Binding affinity to wild-type human partial length STK36 (M1 to T271 residues) expressed in bacterial expression system assessed as residual binding level at 10 uM by Kinomescan method relative to control
[2] = target: Serine/threonine-protein kinase ULK1 (Homo sapiens) (UniProt O75385); assay: Binding affinity to wild-type human partial length ULK1 (M1 to T309 residues) expressed in mammalian expression system assessed as residual binding level at 10 uM by Kinomescan method relative to control
[3] = target: Serine/threonine-protein kinase TAO2 (Homo sapiens) (UniProt Q9UL54); assay: Binding affinity to wild-type human partial length TAOK2 (M1 to A320 residues) expressed in mammalian expression system assessed as residual binding level at 10 uM by Kinomescan method relative to control
Sequence of Serine/threonine-protein kinase TAO2 (Homo sapiens) (Q9UL54 whole entry, the tested form may be a part): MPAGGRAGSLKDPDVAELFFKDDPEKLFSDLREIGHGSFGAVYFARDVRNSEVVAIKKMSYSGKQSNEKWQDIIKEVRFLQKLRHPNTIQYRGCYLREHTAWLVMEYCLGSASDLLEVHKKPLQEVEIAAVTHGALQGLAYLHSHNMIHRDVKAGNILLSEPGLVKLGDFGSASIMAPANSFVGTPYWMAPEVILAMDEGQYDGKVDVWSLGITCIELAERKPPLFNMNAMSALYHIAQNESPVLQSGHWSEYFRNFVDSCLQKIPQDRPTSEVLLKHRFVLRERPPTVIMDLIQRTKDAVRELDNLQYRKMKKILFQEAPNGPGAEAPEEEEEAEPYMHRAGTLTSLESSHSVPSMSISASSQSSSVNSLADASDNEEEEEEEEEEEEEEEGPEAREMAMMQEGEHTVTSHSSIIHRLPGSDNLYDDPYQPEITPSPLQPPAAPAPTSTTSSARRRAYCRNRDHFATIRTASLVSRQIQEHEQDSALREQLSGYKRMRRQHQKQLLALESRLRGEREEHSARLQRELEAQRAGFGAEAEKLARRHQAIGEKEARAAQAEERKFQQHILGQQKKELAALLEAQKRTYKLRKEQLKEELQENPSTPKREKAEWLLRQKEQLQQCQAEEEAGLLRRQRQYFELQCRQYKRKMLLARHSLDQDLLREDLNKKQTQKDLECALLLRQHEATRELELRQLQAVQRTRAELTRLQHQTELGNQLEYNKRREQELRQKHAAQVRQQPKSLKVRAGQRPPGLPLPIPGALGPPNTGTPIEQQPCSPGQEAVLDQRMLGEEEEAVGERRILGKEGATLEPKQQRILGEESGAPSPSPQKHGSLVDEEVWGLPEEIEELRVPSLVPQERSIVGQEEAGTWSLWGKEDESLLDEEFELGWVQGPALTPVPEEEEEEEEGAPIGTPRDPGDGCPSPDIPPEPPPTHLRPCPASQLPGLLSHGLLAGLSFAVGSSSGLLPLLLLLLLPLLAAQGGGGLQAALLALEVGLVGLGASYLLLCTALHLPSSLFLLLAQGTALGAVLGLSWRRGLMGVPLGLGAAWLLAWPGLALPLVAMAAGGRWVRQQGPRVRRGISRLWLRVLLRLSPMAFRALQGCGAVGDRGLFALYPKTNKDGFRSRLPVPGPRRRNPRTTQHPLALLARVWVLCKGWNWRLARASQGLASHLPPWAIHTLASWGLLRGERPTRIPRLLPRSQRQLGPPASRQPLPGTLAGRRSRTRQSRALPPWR

[4] = target: Fibroblast growth factor receptor 4 (Homo sapiens) (UniProt P22455); assay: Binding affinity to wild-type human partial length FGFR4 (G402 to E713 residues) expressed in bacterial expression system assessed as residual binding level at 10 uM by Kinomescan method relative to control
[5] = target: Tyrosine-protein kinase Lck (Homo sapiens) (UniProt P06239); assay: Binding affinity to wild-type human partial length LCK (R207 to P509 residues) expressed in bacterial expression system assessed as residual binding level at 10 uM by Kinomescan method relative to control
Sequence of Tyrosine-protein kinase Lck (Homo sapiens) (P06239 2-509 limits assumed): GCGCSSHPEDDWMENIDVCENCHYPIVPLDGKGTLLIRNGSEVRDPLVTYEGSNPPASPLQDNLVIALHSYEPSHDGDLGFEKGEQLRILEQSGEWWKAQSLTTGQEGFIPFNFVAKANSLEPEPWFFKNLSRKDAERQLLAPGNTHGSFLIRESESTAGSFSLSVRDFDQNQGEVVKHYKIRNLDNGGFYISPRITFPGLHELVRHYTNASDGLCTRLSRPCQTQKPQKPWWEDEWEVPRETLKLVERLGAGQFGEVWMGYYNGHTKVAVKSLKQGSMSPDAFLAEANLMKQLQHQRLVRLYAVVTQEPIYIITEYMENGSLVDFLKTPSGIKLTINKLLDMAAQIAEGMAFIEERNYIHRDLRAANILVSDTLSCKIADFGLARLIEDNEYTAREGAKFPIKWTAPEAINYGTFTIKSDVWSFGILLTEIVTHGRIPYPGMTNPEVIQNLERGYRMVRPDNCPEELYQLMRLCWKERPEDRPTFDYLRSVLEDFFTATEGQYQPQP

[6] = tested on: Tyrosine-protein kinase ABL1 (Homo sapiens), P00519 [Q252H]; assay: Binding affinity to human non-phosphorylated ABL1 Q252H mutant (S229 to K512 residues) expressed in mammalian expression system assessed as residual binding level at 10 uM by Kinomescan method relative to control
[7] = target: MAP/microtubule affinity-regulating kinase 3 (Homo sapiens) (UniProt P27448); assay: Binding affinity to wild-type human full length MARK3 (M1 to L729 residues) expressed in bacterial expression system assessed as residual binding level at 10 uM by Kinomescan method relative to control
[8] = target: Ephrin type-B receptor 3 (Homo sapiens) (UniProt P54753); assay: Binding affinity to wild-type human partial length EPHB3 (Q599 to T928 residues) expressed in bacterial expression system assessed as residual binding level at 10 uM by Kinomescan method relative to control
[9] = target: Macrophage-stimulating protein receptor (Homo sapiens) (UniProt Q04912); assay: Binding affinity to wild-type human partial length MST1R (I1057 to L1363 residues) expressed in bacterial expression system assessed as residual binding level at 10 uM by Kinomescan method relative to control
[10] = target: Mitogen-activated protein kinase kinase kinase 9 (Homo sapiens) (UniProt P80192); assay: Binding affinity to wild-type human partial length MLK1 (V88 to W426 residues) expressed in bacterial expression system assessed as residual binding level at 10 uM by Kinomescan method relative to control
[11] = target: Serine/threonine-protein kinase RIO3 (Homo sapiens) (UniProt O14730); assay: Binding affinity to wild-type human full length RIOK3 (M1 to E519 residues) expressed in bacterial expression system assessed as residual binding level at 10 uM by Kinomescan method relative to control
Sequence of Serine/threonine-protein kinase RIO3 (Homo sapiens) (O14730 whole entry, the tested form may be a part): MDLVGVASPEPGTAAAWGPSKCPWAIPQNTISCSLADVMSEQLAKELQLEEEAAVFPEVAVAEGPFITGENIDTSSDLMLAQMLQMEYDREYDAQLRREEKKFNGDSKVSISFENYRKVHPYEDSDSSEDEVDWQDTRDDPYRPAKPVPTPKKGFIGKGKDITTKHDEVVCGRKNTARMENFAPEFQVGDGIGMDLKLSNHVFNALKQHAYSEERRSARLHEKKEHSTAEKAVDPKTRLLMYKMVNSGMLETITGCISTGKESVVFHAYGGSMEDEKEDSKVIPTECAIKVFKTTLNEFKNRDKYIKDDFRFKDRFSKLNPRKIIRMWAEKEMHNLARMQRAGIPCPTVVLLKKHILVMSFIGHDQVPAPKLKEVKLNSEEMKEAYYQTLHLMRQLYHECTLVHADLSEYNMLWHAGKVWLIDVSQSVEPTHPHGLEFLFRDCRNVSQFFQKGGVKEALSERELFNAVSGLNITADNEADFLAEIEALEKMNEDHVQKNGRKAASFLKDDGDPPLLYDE

[12] = target: ALK tyrosine kinase receptor (Homo sapiens) (UniProt Q9UM73); assay: Binding affinity to wild-type human partial length ALK (I1088 to E1409 residues) expressed in mammalian expression system assessed as residual binding level at 10 uM by Kinomescan method relative to control
[13] = target: Activin receptor type-2A (Homo sapiens) (UniProt P27037); assay: Binding affinity to wild-type human ACVR2A (V171 to T499 residues) expressed in bacterial expression system assessed as residual binding level at 10 uM by Kinomescan method relative to control
[14] = target: Mitogen-activated protein kinase 15 (Homo sapiens) (UniProt Q8TD08); assay: Binding affinity to wild-type human partial length ERK8 (M1 to P437 residues) expressed in bacterial expression system assessed as residual binding level at 10 uM by Kinomescan method relative to control
[15] = tested on: Hepatocyte growth factor receptor (Homo sapiens), P08581 [Y1235D]; assay: Binding affinity to human partial length MET Y1235D mutant (D1010 to S1367 residues) expressed in bacterial expression system assessed as residual binding level at 10 uM by Kinomescan method relative to control
[16] = tested on: Epidermal growth factor receptor (Homo sapiens), P00533 [L858R,T790M]; assay: Binding affinity to human partial length EGFR L858R/T790M double mutant (R669 to V1011 residues) expressed in mammalian expression system assessed as residual binding level at 10 uM by Kinomescan method relative to control
[17] = target: cGMP-dependent protein kinase 1 (Homo sapiens) (UniProt Q13976); assay: Binding affinity to wild-type human partial length PRKG1 (L339 to F686 residues) expressed in bacterial expression system assessed as residual binding level at 10 uM by Kinomescan method relative to control
Sequence of cGMP-dependent protein kinase 1 (Homo sapiens) (Q13976 whole entry, the tested form may be a part): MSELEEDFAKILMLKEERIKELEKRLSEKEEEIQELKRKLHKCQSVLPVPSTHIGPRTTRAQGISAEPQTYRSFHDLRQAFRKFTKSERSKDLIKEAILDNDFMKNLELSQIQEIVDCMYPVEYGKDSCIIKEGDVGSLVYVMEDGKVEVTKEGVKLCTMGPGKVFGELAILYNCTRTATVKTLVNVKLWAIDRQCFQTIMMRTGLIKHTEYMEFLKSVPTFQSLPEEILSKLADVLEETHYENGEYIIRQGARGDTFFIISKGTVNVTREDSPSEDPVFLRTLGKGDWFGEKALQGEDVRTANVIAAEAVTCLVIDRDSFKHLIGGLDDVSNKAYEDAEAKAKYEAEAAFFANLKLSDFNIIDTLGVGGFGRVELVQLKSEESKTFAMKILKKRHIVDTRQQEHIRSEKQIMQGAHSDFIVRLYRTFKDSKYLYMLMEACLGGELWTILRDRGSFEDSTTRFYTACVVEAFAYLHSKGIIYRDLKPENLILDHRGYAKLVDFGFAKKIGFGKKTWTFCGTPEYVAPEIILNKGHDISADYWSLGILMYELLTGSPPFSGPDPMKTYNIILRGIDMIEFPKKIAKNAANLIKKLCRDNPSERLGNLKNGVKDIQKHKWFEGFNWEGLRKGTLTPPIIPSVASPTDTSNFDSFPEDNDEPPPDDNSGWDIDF

[18] = target: Ribosomal protein S6 kinase alpha-6 (Homo sapiens) (UniProt Q9UK32); assay: Binding affinity to wild-type human partial length C-terminal RSK4 kinase domain 2 (I401 to Y711 residues) expressed in bacterial expression system assessed as residual binding level at 10 uM by Kinomescan method relative to control
Sequence of Ribosomal protein S6 kinase alpha-6 (Homo sapiens) (Q9UK32 whole entry, the tested form may be a part): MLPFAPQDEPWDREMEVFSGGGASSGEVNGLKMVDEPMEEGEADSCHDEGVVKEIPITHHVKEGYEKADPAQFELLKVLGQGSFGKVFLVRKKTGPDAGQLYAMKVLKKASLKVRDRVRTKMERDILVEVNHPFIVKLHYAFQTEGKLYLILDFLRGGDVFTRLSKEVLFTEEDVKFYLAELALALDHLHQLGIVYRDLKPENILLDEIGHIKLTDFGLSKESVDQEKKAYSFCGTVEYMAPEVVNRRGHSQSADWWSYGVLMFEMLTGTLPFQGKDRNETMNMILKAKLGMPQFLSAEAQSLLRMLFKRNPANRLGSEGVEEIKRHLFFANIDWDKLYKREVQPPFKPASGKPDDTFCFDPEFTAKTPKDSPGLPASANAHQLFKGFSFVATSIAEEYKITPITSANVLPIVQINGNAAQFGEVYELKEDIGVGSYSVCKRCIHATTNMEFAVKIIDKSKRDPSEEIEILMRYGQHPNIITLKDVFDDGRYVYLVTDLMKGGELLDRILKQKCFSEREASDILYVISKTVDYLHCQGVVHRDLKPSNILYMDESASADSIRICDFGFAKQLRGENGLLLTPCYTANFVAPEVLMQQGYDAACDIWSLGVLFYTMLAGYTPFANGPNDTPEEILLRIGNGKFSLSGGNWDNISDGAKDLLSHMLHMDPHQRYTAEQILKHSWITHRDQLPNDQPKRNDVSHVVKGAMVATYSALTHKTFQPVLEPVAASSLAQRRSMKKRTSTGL

[19] = tested on: Epidermal growth factor receptor (Homo sapiens), P00533 [L861Q]; assay: Binding affinity to human partial length EGFR L861Q mutant (R669 to V1011 residues) expressed in bacterial expression system assessed as residual binding level at 10 uM by Kinomescan method relative to control
[20] = target: Mitogen-activated protein kinase 14 (Homo sapiens) (UniProt Q16539); assay: Binding affinity to wild-type human full length p38-alpha (M1 to S360 residues) expressed in bacterial expression system assessed as residual binding level at 10 uM by Kinomescan method relative to control
Sequence of Mitogen-activated protein kinase 14 (Homo sapiens) (Q16539 whole entry, the tested form may be a part): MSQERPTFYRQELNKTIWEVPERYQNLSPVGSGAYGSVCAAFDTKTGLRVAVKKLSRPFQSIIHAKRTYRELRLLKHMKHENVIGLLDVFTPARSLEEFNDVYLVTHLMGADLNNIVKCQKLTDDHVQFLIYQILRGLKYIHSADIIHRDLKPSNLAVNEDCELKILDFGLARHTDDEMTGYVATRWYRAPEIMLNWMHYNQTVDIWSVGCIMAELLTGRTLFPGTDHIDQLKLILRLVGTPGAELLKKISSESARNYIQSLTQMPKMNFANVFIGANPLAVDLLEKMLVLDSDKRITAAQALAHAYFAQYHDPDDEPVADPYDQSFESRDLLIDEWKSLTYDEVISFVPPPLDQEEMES

[21] = target: Phosphatidylinositol 4-phosphate 5-kinase type-1 alpha (Homo sapiens) (UniProt Q99755); assay: Binding affinity to wild-type human full length PIP5K1A (M1 to H562 residues) expressed in bacterial expression system assessed as residual binding level at 10 uM by Kinomescan method relative to control
Sequence of Phosphatidylinositol 4-phosphate 5-kinase type-1 alpha (Homo sapiens) (Q99755 whole entry, the tested form may be a part, canonical isoform): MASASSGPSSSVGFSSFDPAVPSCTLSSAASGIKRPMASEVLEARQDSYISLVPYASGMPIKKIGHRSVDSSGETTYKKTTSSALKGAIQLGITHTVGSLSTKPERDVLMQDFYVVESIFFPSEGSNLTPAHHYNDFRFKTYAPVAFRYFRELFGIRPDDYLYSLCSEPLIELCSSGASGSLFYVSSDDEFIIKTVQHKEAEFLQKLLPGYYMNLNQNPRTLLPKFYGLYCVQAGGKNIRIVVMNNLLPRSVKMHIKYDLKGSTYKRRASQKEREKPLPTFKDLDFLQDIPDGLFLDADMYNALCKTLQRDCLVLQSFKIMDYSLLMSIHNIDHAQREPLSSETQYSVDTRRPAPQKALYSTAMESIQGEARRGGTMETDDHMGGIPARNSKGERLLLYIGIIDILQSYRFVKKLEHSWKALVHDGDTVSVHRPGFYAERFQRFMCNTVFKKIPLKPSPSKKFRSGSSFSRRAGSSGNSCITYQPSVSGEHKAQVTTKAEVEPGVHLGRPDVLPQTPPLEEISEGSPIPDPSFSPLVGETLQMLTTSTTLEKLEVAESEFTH

[22] = target: Casein kinase I isoform delta (Homo sapiens) (UniProt P48730); assay: Binding affinity to wild-type human full length CSNK1D (M1 to K409 residues) expressed in bacterial expression system assessed as residual binding level at 10 uM by Kinomescan method relative to control
[23] = target: Tyrosine-protein kinase Fgr (Homo sapiens) (UniProt P09769); assay: Binding affinity to wild-type human partial length FGR (L233 to T529 residues) expressed in bacterial expression system assessed as residual binding level at 10 uM by Kinomescan method relative to control
[24] = target: Serine/threonine-protein kinase 17A (Homo sapiens) (UniProt Q9UEE5); assay: Binding affinity to wild-type human partial length DRAK1 (R32 to E363 residues) expressed in bacterial expression system assessed as residual binding level at 10 uM by Kinomescan method relative to control
Sequence of Serine/threonine-protein kinase 17A (Homo sapiens) (Q9UEE5 whole entry, the tested form may be a part): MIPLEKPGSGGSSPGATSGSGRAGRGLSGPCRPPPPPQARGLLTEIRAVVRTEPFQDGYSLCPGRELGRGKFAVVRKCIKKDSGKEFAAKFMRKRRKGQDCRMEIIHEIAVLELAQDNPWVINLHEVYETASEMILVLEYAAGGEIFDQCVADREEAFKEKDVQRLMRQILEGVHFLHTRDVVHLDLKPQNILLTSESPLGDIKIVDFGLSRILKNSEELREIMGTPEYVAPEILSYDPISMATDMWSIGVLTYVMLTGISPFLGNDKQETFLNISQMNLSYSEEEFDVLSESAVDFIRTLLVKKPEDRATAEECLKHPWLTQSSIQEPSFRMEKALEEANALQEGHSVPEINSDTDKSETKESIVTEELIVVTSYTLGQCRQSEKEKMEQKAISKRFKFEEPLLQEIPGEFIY

## CC(C)N1C(=O)C(NCCCN(C)C)=C(c2cn(C)c3ccccc23)C1=O.Cl
[1]
  Activity: 98%
[2]
  Activity: 79%
[3]
  Activity: 94%
[4]
  Activity: 100%
[5]
  Activity: 92%
[6]
  Activity: 100%
[7]
  Activity: 78%
[8]
  Activity: 99%
[9]
  Activity: 100%
[10]
  Activity: 100%
[11]
  Activity: 100%
[12]
  Activity: 100%
[13]
  Activity: 100%
[14]
  Activity: 95%
[15]
  Activity: 99%
[16]
  Activity: 100%
[17]
  Activity: 91%
[18]
  Activity: 100%
[19]
  Activity: 80%
[20]
  Activity: 100%
[21]
  Activity: 96%
[22]
  Activity: 100%
[23]
  Activity: 82%
[24]
  Activity: 97%
